Measured values published in PubChem BioAssay AID330 (DTP/NCI, 2004).
Values joined by “and” are separate entries in the source; they are usually repeats but may differ in a detail not shown here. Equal values may be shown once. Inconclusive results and toxic doses are left out. The calls were made as follows: active = survival T/C of 150% or more; inactive = T/C below 125% in these data.

Tested on: P388 leukemia ip, CD2F1 mice, survival T/C
Test: NCI In Vivo Anticancer Drug Screen. Data for tumor model P388 Leukemia (intraperitoneal) in CD2F1 (CDF1) mice
Conditions: endpoint: median survival time, higher = longer survival
Summary of the method: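 Mice carrying the transplanted tumor received test compound or vehicle. Survival was recorded in each group, and the value is the treated-group measurement divided by that of the vehicle-treated control group.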

[1] = dose: 100.0 mg/kg/injection, schedule: Q01DX009 (ip), vehicle: saline with Tween-80
[2] = dose: 200.0 mg/kg/injection, schedule: Q01DX009 (ip), vehicle: saline with Tween-80
[3] = dose: 12.5 mg/kg/injection, schedule: Q01DX009 (ip), vehicle: saline with Tween-80
[4] = dose: 25.0 mg/kg/injection, schedule: Q01DX009 (ip), vehicle: saline with Tween-80
[5] = dose: 50.0 mg/kg/injection, schedule: Q01DX009 (ip), vehicle: saline with Tween-80
[6] = dose: 50.0 mg/kg/injection, schedule: Q01DX005 (ip), vehicle: saline with Tween-80
[7] = dose: 100.0 mg/kg/injection, schedule: Q01DX009 (ip), vehicle: saline
[8] = dose: 200.0 mg/kg/injection, schedule: Q01DX009 (ip), vehicle: saline
[9] = dose: 400.0 mg/kg/injection, schedule: Q01DX009 (ip), vehicle: saline
[10] = dose: 50.0 mg/kg/injection, schedule: Q01DX009 (ip), vehicle: saline

Measured: T/C

COc1cccc2c1C(=O)c1c(O)c3c(c(O)c1C2=O)CC(O)(C(C)=O)CC3OC1CC(NC2CCOCC2)C(O)C(C)O1 (stereo not drawn)
inactive: dose: 3.12 mg/kg/injection, schedule: Q04DX003 (ip), vehicle: water 101 % of control | dose: 6.25 mg/kg/injection, schedule: Q04DX003 (ip), vehicle: water 101 % of control and 107 % of control | dose: 12.5 mg/kg/injection, schedule: Q04DX003 (ip), vehicle: water 102 % of control and 107 % of control | dose: 25.0 mg/kg/injection, schedule: Q04DX003 (ip), vehicle: water 118 % of control | dose: 50.0 mg/kg/injection, schedule: Q04DX003 (ip), vehicle: water 120 % of control | dose: 200.0 mg/kg/injection, schedule: Q04DX003 (ip), vehicle: water 111 % of control

OCCSc1c(Cl)c(Cl)c(Cl)c(Cl)c1Cl
inactive: [1] 106 % of control | [2] 113 % of control

C=C1CCC2C1C1C(C(C)C)CCC21C (stereo not drawn)
inactive: [3] 92 % of control | [4] 96 % of control | [5] 93 % of control

COc1cc([C@@H]2OC[C@@H]3C(c4cc(OC)c5c(c4)OCO5)OC[C@@H]32)cc(OC)c1OC (stereo partly drawn)
inactive: dose: 5.0 mg/kg/injection, schedule: Q01DX009 (ip), vehicle: saline + Tween-80 + alcohol 102 % of control | dose: 10.0 mg/kg/injection, schedule: Q01DX009 (ip), vehicle: saline + Tween-80 + alcohol 101 % of control | dose: 20.0 mg/kg/injection, schedule: Q01DX009 (ip), vehicle: saline + Tween-80 + alcohol 105 % of control | dose: 40.0 mg/kg/injection, schedule: Q01DX009 (ip), vehicle: saline + Tween-80 + alcohol 105 % of control

Cc1ccnc(NN=O)n1
inactive: dose: 3.12 mg/kg/injection, schedule: Q01DX009 (ip), vehicle: water 99 % of control | dose: 6.25 mg/kg/injection, schedule: Q01DX009 (ip), vehicle: water 113 % of control | dose: 12.5 mg/kg/injection, schedule: Q01DX009 (ip), vehicle: water 98 % of control | dose: 25.0 mg/kg/injection, schedule: Q01DX009 (ip), vehicle: water 100 % of control and 105 % of control | dose: 50.0 mg/kg/injection, schedule: Q01DX009 (ip), vehicle: water 113 % of control and 90 % of control | dose: 100.0 mg/kg/injection, schedule: Q01DX009 (ip), vehicle: water 100 % of control | dose: 200.0 mg/kg/injection, schedule: Q01DX009 (ip), vehicle: water 104 % of control

CC(C)SC(=O)C[Si](C)(C)C
inactive: dose: 50.0 mg/kg/injection, schedule: Q04DX003 (ip), vehicle: saline with Tween-80 98 % of control and 101 % of control | dose: 100.0 mg/kg/injection, schedule: Q04DX003 (ip), vehicle: saline with Tween-80 101 % of control and 104 % of control | dose: 200.0 mg/kg/injection, schedule: Q04DX003 (ip), vehicle: saline with Tween-80 103 % of control and 105 % of control | dose: 400.0 mg/kg/injection, schedule: Q04DX003 (ip), vehicle: saline with Tween-80 98 % of control

CC(=O)Nc1[c-]cccc1.CC(=O)Nc1[c-]cccc1.CC(=O)O.CC(=O)O.[Pd].[Pd]
inactive: dose: 6.25 mg/kg/injection, schedule: Q01DX005 (ip), vehicle: saline with Tween-80 94 % of control | dose: 12.5 mg/kg/injection, schedule: Q01DX005 (ip), vehicle: saline with Tween-80 95 % of control and 98 % of control | dose: 25.0 mg/kg/injection, schedule: Q01DX005 (ip), vehicle: saline with Tween-80 119 % of control and 98 % of control | [6] 100 % of control and 110 % of control

O=C1CN(CCO)CC(=O)N2Cc3ccccc3CN12
inactive: [6] 101 % of control | dose: 100.0 mg/kg/injection, schedule: Q01DX005 (ip), vehicle: saline with Tween-80 111 % of control | dose: 200.0 mg/kg/injection, schedule: Q01DX005 (ip), vehicle: saline with Tween-80 103 % of control

CCOCCOCCOC(C)Oc1ccccc1OC (stereo not drawn)
inactive: dose: 60.0 mg/kg/injection, schedule: Q01DX005 (ip), vehicle: saline with Tween-80 100 % of control | dose: 120.0 mg/kg/injection, schedule: Q01DX005 (ip), vehicle: saline with Tween-80 104 % of control | dose: 240.0 mg/kg/injection, schedule: Q01DX005 (ip), vehicle: saline with Tween-80 106 % of control

CCc1cc2c(cc1C(C)=O)C(C)(C)CCC2(C)C
inactive: [5] 94 % of control | [1] 110 % of control

CC(=O)ON(C(C)=O)c1ccc(C(=O)OC2(C)CC(C)(C)N=N2)cc1 (stereo not drawn)
inactive: [3] 86 % of control | [1] 87 % of control | [2] 106 % of control

COc1ccc(N=Cc2cccs2)cc1
inactive: dose: 50.0 mg/kg/injection, schedule: Q01DX009 (ip), vehicle: Klucel (hydroxypropylcellulose) (HPC) 94 % of control | dose: 100.0 mg/kg/injection, schedule: Q01DX009 (ip), vehicle: Klucel (hydroxypropylcellulose) (HPC) 114 % of control | dose: 200.0 mg/kg/injection, schedule: Q01DX009 (ip), vehicle: Klucel (hydroxypropylcellulose) (HPC) 105 % of control

S=C=NCCc1ccccc1
inactive: [3] 116 % of control | dose: 22.0 mg/kg/injection, schedule: Q01DX009 (ip), vehicle: saline with Tween-80 115 % of control | [5] 114 % of control

O=c1oc2c(O)c(O)cc3c(=O)oc4c(O)c(O)cc1c4c23
inactive: dose: 50.0 mg/kg/injection, schedule: Q01DX009 (ip), vehicle: other 121 % of control | dose: 50.0 mg/kg/injection, schedule: Q04DX003 (ip), vehicle: saline 100 % of control | dose: 100.0 mg/kg/injection, schedule: Q01DX009 (ip), vehicle: other 123 % of control | dose: 100.0 mg/kg/injection, schedule: Q04DX003 (ip), vehicle: saline 103 % of control | dose: 200.0 mg/kg/injection, schedule: Q01DX009 (ip), vehicle: other 117 % of control and 123 % of control | dose: 200.0 mg/kg/injection, schedule: Q04DX003 (ip), vehicle: saline 112 % of control | dose: 400.0 mg/kg/injection, schedule: Q01DX009 (ip), vehicle: other 102 % of control and 108 % of control

COc1cc(CCN)ccc1O
inactive: [7] 104 % of control and 98 % of control | [8] 100 % of control and 102 % of control | [9] 100 % of control and 107 % of control | dose: 600.0 mg/kg/injection, schedule: Q01DX009 (ip), vehicle: saline 102 % of control and 114 % of control

CSC(C=P(c1ccccc1)(c1ccccc1)c1ccccc1)=Nc1ccccc1
inactive: dose: 6.25 mg/kg/injection, schedule: Q01DX009 (ip), vehicle: saline with Tween-80 101 % of control | [3] 101 % of control | [4] 102 % of control and 103 % of control

CCCN(CCC)C(=O)O[Si](C)(C)C(C)(C)C
inactive: [5] 105 % of control | [1] 97 % of control | [2] 105 % of control

Cn1c(=O)c2[nH]c(/N=N/N(CCCl)CCCl)nc2n(C)c1=O
inactive: dose: 25.0 mg/kg/injection, schedule: Q01DX009 (ip), vehicle: saline 100 % of control | [10] 100 % of control | [7] 104 % of control | [8] 107 % of control | [9] 96 % of control

C[N+](C)(C)CCC(=O)c1ccc([N+](=O)[O-])cc1
inactive: [10] 109 % of control | [7] 118 % of control

O=C(CCl)NC(=O)CCl
inactive: [4] 90 % of control

COc1cc(CC(CC(=O)c2ccc3c(c2)OCO3)C(=O)O)cc(OC)c1OC (stereo not drawn)
inactive: dose: 50.0 mg/kg/injection, schedule: Q01DX005 (ip), vehicle: Klucel (hydroxypropylcellulose) (HPC) 94 % of control | dose: 100.0 mg/kg/injection, schedule: Q01DX005 (ip), vehicle: Klucel (hydroxypropylcellulose) (HPC) 99 % of control | dose: 200.0 mg/kg/injection, schedule: Q01DX005 (ip), vehicle: Klucel (hydroxypropylcellulose) (HPC) 94 % of control

CN(C)c1ccc(C(c2cc3c(cc2O)OCO3)N2CCCC2)cc1 (stereo not drawn)
inactive: dose: 60.0 mg/kg/injection, schedule: Q01DX005 (ip), vehicle: Klucel (hydroxypropylcellulose) (HPC) 108 % of control | dose: 120.0 mg/kg/injection, schedule: Q01DX005 (ip), vehicle: Klucel (hydroxypropylcellulose) (HPC) 109 % of control | dose: 240.0 mg/kg/injection, schedule: Q01DX005 (ip), vehicle: Klucel (hydroxypropylcellulose) (HPC) 109 % of control
